The record followed here is patent publication US11685761B2, “Cyclic di-nucleotide compounds as sting agonists” (Merck Sharp & Dohme Corp., priority 2017, dated 2023).

Where two headings read alike, the source gives them in different places.

Assay [1] concerns the target T1, full-length HAQ STING (Homo sapiens, UniProt Q86WV6, G230A/H232R/R293Q/R71H).
T1 construct: made in house; host or cells: Trichoplusia ni (Hi-Five) insect cells, baculovirus generated in Sf21; crude membranes
As to the kind of experiment: 3H-cGAMP filtration binding assay (HAQ STING). Conditions: competition with tritiated cGAMP ligand; T. ni cell membranes overexpressing full-length HAQ STING. The source says:
The ability of compounds to bind STING is quantified by the ability to compete with tritiated cGAMP ligand for human STING receptor membrane using a radioactive filter-binding assay. The binding assay employs STING receptor obtained from Hi-Five cell membranes overexpressing full-length HAQ STING prepared in-house and tritiated cGAMP ligand also purified in-house.
The ability of compounds to bind STING is quantified by their ability to compete with tritiated cGAMP ligand for human STING receptor membrane using a radioactive filter-binding assay. The binding assay employs STING receptor obtained from Trichoplusia ni cell membranes (T. ni; Expression Systems, cat #94-002F, www.expressionsystems.com) overexpressing full-length HAQ STING and tritiated cGAMP ligand.
The basic HAQ STING filtration assay protocol is as follows:
The compounds were serially titrated by the Hamilton STARPlus CORE in a 96-well plate (Greiner, #651201) using a 1:3 ten-point dose response format. […] 148 uL of prepared membrane was then manually added to each well of a 96-well deep-well polypropylene plate (Fisher Scientific, #12-566-121). Following membrane addition, 2 uL of either titrated test compound, DMSO control (Sigma #276855), or cold cGAMP control was added to the appropriate wells using a BIOMEK FX. Compound and membrane then preincubated for 60 min at RT to allow compound binding to equilibrate. Following equilibration, 8 nM of [^3H] c-GAMP ligand was prepared by diluting into assay buffer, and 50 uL of this working stock was then manually added to each well of the assay plate. Plates were then incubated at RT for 60 min, and the contents of each assay plate were then filtered through a 96-well GF/B filter plate (PerkinElmer, #6005250) using a TOMTEC MACH III Cell Harvester equipped with 20 mM HEPES buffer (Fisher Scientific, #BP299500). The filter plates were then dried at 55° C. for 30 min using a pressurized oven before 30 uL of ULTIMA GOLD F scintillate was added to each well. Tritium levels for each reaction well were then measured using a PerkinElmer TopCount plate reader.
After normalization to controls, the percent activity for each compound concentration was calculated by measuring the amount of remaining radioactivity. The plot of percent activity versus the log of compound concentration was fit with a 4-parameter dose response equation to calculate EC50 values.

For assay [2], the system named is IFN-β secretion from THP1 cells. Put plainly: IFN-β secretion in THP1 cell culture (5 h). Type of assay: cell-based, human. As to conditions: for activation at 30 µM: Homo sapiens, read-out: % Effect at 30 μM relative to 2′3′-cGAMP. The method, then: The ability of compounds to stimulate the secretion of interferon-beta from THP1 cells was measured using a human IFN-β AlphaLISA kit (Perkin Elmer, Cat. No. AL265F). The basic protocol is as follows:
The cell viability and count was ascertained using a Beckman Coulter V-Cell XR cell counter. The cell suspension was centrifuged at 200×g for 5 min at RT. Cells were resuspended to a density of 0.8×10^6/mL in 37° C. assay medium. Subsequent liquid transfers were performed using either a Matrix electronic multichannel pipette or an Agilent Bravo Automated Liquid Handling Platform.
The assay was started by dispensing 40 μL of the previously prepared cell suspension into the wells of the plate containing compounds. After 5 h incubation at 37° C., 5% CO2 in a humidified atmosphere, the plate of cells and compounds was centrifuged at 200×g for 5 min at RT. […] To these supernatant-containing wells was added 10 μL of 5× Anti-Analyte Acceptor beads (50 μg/mL of AlphaLISA HiBlock Buffer) and incubated for 30 min at RT while shaking on an orbital plate shaker. To each well was added 10 μL of 5× Biotinylated Antibody Anti-analyte (5 nM in AlphaLISA HiBlock Buffer) and incubated on an orbital plate shaker for 60 min at RT or overnight at 4° C. To each well was added 25 μL of 2× SA-Donor beads (80 μg/mL in AlphaLISA HiBlock Buffer) and incubated for 30-45 min at RT in the dark while shaking on an orbital plate shaker. The plate was then read on a Perkin Elmer Envision (λex680 nm, λem=570 nm). The percent effect of the AlphaLISA signal at each compound concentration was calculated based on 30 uM cGAMP positive controls and 0.3% DMSO negative controls. The plot of percent effect versus the log of compound concentration was fit with a 4-parameter concentration response equation to calculate EC50 values.
Compounds of the disclosure were evaluated for IFN-β secretion in THP1 cell culture as described above.

[3] abbreviates: THP-1, 5 h, THP1 cells, 5 h incubation, compound at 30 μM, 30 uM cGAMP = 100%.
The mark [4] stands for this setting: THP1 cells, 5 h incubation, compound at 30 μM, 30 uM cGAMP = 100%.

T1 sequence (Q86WV6 with tags, fused parts or gaps R71H/G230A/H232R/R293Q): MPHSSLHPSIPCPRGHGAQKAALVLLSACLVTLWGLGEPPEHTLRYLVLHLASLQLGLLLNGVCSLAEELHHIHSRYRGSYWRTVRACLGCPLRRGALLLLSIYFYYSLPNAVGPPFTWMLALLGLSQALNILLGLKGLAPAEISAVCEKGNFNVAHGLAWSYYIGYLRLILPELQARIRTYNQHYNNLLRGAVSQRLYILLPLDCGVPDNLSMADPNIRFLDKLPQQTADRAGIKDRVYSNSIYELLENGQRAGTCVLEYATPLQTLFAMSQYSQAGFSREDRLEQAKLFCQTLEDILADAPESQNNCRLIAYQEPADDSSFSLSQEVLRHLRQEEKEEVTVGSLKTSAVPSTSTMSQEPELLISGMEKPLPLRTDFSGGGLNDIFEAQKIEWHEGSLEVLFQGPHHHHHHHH

What is called EC50 is the concentration that produces a half-maximal response. A low value points to a more potent agent. In assay [1], `Nc1ncnn2c([C@H]3C[C@@H]4O[P@](=O)(S)OC[C@H]5O[C@@H](n6ccc(=O)n7ccnc67)[C@H](O[P@](=O)(S)OC[C@H]4O3)[C@@H]5O)cnc12` (single isomer, unassigned) [Example 8] had a concentration for a half-maximal effect (EC50) of 23 nM. For the same compound, in assay [2] (setting [3]), the activation at 30 µM stood at 128%.

In assay [1], `Nc1ncnn2c([C@H]3C[C@@H]4O[P@](=O)(S)OC[C@H]5O[C@@H](n6ccc(=O)n7ccnc67)[C@H](O[P@@](=O)(S)OC[C@H]4O3)[C@@H]5O)cnc12` (single isomer, unassigned) [Example 9] displayed a concentration giving a half-maximal response (EC50) of 23 nM. Moreover, the activation at 30 µM in assay [2] (setting [3]) is 80%.

Turning to `Nc1ncnc2c1ncn2[C@@H]1S[C@@H]2CO[P@@](=O)(S)O[C@@H]3[C@H](O)[C@@H](CO[P@@](=O)(S)O[C@H]2[C@H]1O)O[C@H]3n1ccc(=O)n2ccnc12` (single isomer, unassigned) [Example 10], the EC50 in assay [1] turned out to be 3 nM. For the same compound, the activation at 30 µM in assay [2] (setting [3]) came to 183%.

Take `Nc1ncnc2c1ncn2[C@@H]1S[C@@H]2CO[P@](=O)(S)O[C@@H]3[C@H](O)[C@@H](CO[P@@](=O)(S)O[C@H]2[C@H]1O)O[C@H]3n1ccc(=O)n2ccnc12` (single isomer, unassigned) [Example 11]: the response in assay [1] was half-maximal at 1740 nM (EC50). For the same compound, the activation at 30 µM in assay [2] (setting [3]) was determined as 5%.

Compound `Nc1ncnc2c1ncn2[C@@H]1S[C@@H]2CO[P@@](=O)(S)O[C@@H]3[C@H](O)[C@@H](CO[P@](=O)(S)O[C@H]2[C@H]1O)O[C@H]3n1ccc(=O)n2ccnc12` (single isomer, unassigned) [Example 12] yielded a concentration giving a half-maximal response (EC50) in assay [1] of 156 nM. Further, the activation at 30 µM in assay [2] (setting [3]) was 123%.

Take `Nc1ncnc2c1nnn2[C@@H]1O[C@@H]2COP(=O)(S)O[C@@H]3[C@H](F)[C@@H](COP(=O)(S)O[C@H]2[C@@H]1F)O[C@H]3n1cnc2c(=O)n3cc[nH]c3nc21` (single isomer, unassigned) [Example 23]: the half-maximal effective concentration (EC50) in assay [1] amounted to 28 nM.

In the case of `Nc1ncnc2c1nnn2[C@@H]1O[C@@H]2COP(=O)(S)O[C@@H]3[C@H](F)[C@@H](COP(=O)(S)O[C@H]2[C@@H]1F)O[C@H]3n1cnc2c(=O)n3cc[nH]c3nc21` (single isomer, unassigned) [Example 24], a half-maximal response in assay [1] (EC50) required 411 nM.

The compound `Nc1ncnc2c1ncn2[C@@H]1O[C@@]23CO[C@@H]1[C@@H]2OP(=O)(S)OC[C@H]1O[C@@H](n2cnc4c(=O)n5cc[nH]c5nc42)[C@H](OP(=O)(S)OC3)[C@@H]1F` (single isomer, unassigned) [Example 25] came in with an EC50 in assay [1] of 1 nM. Further, the “% Effect at 30 μM relative to 2′3′-cGAMP” value in assay [2] (setting [4]) came out at 131%.

In turn, `Nc1ncnc2c1ncn2[C@@H]1O[C@@]23CO[C@@H]1[C@@H]2OP(=O)(S)OC[C@H]1O[C@@H](n2cnc4c(=O)n5cc[nH]c5nc42)[C@H](OP(=O)(S)OC3)[C@@H]1F` (single isomer, unassigned) [Example 26] had an EC50 in assay [1] of 19 nM. Further, the “% Effect at 30 μM relative to 2′3′-cGAMP” value in assay [2] (setting [4]) came out at 153%.

As for `Nc1ncnc2c1ncn2[C@@H]1O[C@@]23CO[C@@H]1[C@@H]2OP(=O)(S)OC[C@H]1O[C@@H](n2cnc4c(=O)n5cc[nH]c5nc42)[C@H](OP(=O)(S)OC3)[C@@H]1F` (single isomer, unassigned) [Example 27], the EC50 in assay [1] was found to be 61 nM. For the same compound, the “% Effect at 30 μM relative to 2′3′-cGAMP” value in assay [2] (setting [4]) was determined as 143%.

Take `Nc1nc2c(ncn2[C@@H]2O[C@@H]3COP(=O)(S)O[C@H]4[C@@H](O)[C@H](n5cnc6c(=O)[nH]c7nccn7c65)O[C@@H]4COP(=O)(S)O[C@@H]2[C@@H]3F)c(=O)[nH]1` (single isomer, unassigned) [Example 32]: the concentration giving a half-maximal response (EC50) in assay [1] came out at 14 nM. Also, the “% Effect at 30 μM relative to 2′3′-cGAMP” value in assay [2] (setting [4]) amounted to 141%.

Turning to `Nc1nc2c(ncn2[C@@H]2O[C@@H]3COP(=O)(S)O[C@H]4[C@@H](O)[C@H](n5cnc6c(=O)[nH]c7nccn7c65)O[C@@H]4COP(=O)(S)O[C@@H]2[C@@H]3F)c(=O)[nH]1` (single isomer, unassigned) [Example 33], in assay [1], the midpoint of the response, the EC50, lay at 90 nM. For the same compound, the “% Effect at 30 μM relative to 2′3′-cGAMP” value in assay [2] (setting [4]) is 83%.

Regarding `Nc1nc2c(ncn2[C@@H]2O[C@@H]3COP(=O)(S)O[C@H]4C[C@H](n5ccc6c(=O)[nH]cnc65)O[C@@H]4COP(=O)(S)O[C@@H]2[C@@H]3F)c(=O)[nH]1` (single isomer, unassigned) [Example 35], a half-maximal response in assay [1] (EC50) required 11 nM. Besides, the “% Effect at 30 μM relative to 2′3′-cGAMP” value in assay [2] is on record as 98%.

In assay [1], `Nc1nc2c(ncn2[C@@H]2O[C@@H]3COP(=O)(S)O[C@H]4C[C@H](n5ccc6c(=O)[nH]cnc65)O[C@@H]4COP(=O)(S)O[C@@H]2[C@@H]3F)c(=O)[nH]1` (single isomer, unassigned) [Example 36] showed an EC50 of 2 nM. In assay [2] (setting [3]), the activation at 30 µM is 94%.

Regarding `Nc1nc2c(ncn2[C@@H]2O[C@@H]3COP(=O)(S)O[C@H]4C[C@H](n5ccc6c(=O)[nH]cnc65)O[C@@H]4COP(=O)(S)O[C@@H]2C3)c(=O)[nH]1` (single isomer, unassigned) [Example 37], it took 49 nM to reach a half-maximal effect in assay [1] (EC50). In addition, the activation at 30 µM in assay [2] (setting [3]) was found to be 102%.

`Nc1nc2c(ncn2[C@@H]2O[C@@H]3COP(=O)(S)O[C@H]4[C@H](F)[C@H](n5ccc6c(=O)[nH]cnc65)O[C@@H]4COP(=O)(S)O[C@@H]2[C@@H]3F)c(=O)[nH]1` (single isomer, unassigned) [Example 39] came in with an EC50 in assay [1] of 1 nM. Also, in assay [2] (setting [3]), the activation at 30 µM was 166%.

Compound `Nc1ncnc2c1ncn2[C@@H]1O[C@@H]2COP(=O)(S)O[C@H]3[C@H](F)[C@H](n4ccc5c(=O)[nH]cnc54)O[C@@H]3COP(=O)(S)O[C@@H]1C2` (single isomer, unassigned) [Example 47] returned an EC50 in assay [1] of 460 nM. For the same compound, in assay [2] (setting [4]), the “% Effect at 30 μM relative to 2′3′-cGAMP” value is on record as 13%.

Consider `Nc1ncnc2c1ncn2[C@@H]1O[C@@H]2COP(=O)(S)O[C@@H]3[C@@H](F)[C@@H](COP(=O)(S)O[C@H]2[C@@H]1F)O[C@H]3n1cnc2c(=O)[nH]ccc21` (stereo partly drawn) [Example 21, 1-[(5R,7R,8S,12aR,14R,15S,15aR,16S)-14-(6-amino-9H-purin-9-yl)-15,16-difluoro-2,10-dioxido-2,10-disulfanyloctahydro-12H-5,8-methanofuro[3,2-1][1,3,6,9,11,2,10]pentaoxadiphosphacyclotetradecin-7-yl]-1,5-dihydro-4H-imidazo[4,5-c]pyridin-4-one], for which, in assay [2] (THP-1, THP1 cells, 5 h incubation, compound at 30 μM, 30 uM cGAMP = 100%), the activation at 30 µM came to 143%.

Take `Nc1ncnc2c1ccn2[C@@H]1O[C@@H]2COP(=O)(S)O[C@@H]3C[C@@H](COP(=O)(S)O[C@H]2[C@@H]1F)O[C@H]3n1cnc2c(=O)[nH]ccc21` (stereo partly drawn) [Example 22, 1-[(5S,7R,8R,12aR,14R,15S,15aR)-14-(4-amino-7H-pyrrolo[2,3-d]pyrimidin-7-yl)-15-fluoro-2,10-dioxido-2,10-disulfanyloctahydro-12H-5,8-methanofuro[3,2-l][1,3,6,9,11,2,10]pentaoxadiphosphacyclotetradecin-7-yl]-1,5-dihydro-4H-imidazo[4,5-c]pyridin-4-one]: in assay [2] (setting [3]), the activation at 30 µM was found to be 100%.
